From ChEMBL document CHEMBL5518236, “Discovery of Clinical Candidate AZD5462, a Selective Oral Allosteric RXFP1 Agonist for Treatment of Heart Failure” (J Med Chem, 2024)
One block for each molecule: values may come before it.

Assays:
[1] = Metabolic stability in human hepatocytes assessed as intrinsic clearance measured per 10^6 viable cells/ml at 1 uM measured upto 120 mins by LC-MS/MS analysis; type: ADME, cell-based, Hepatocyte; conditions: read-out: CLH
[2] = Metabolic stability in human liver microsomes assessed as intrinsic clearance at 1 uM measured upto 30 mins by LC-MS/MS analysis; type: ADME, Microsome; conditions: read-out: CLH
[3] = Clearance in Han Wistar rat at 0.93 micromol/kg, iv by LC-MS/MS analysis; type: ADME, organism-based; conditions: in vivo, dose 0.93 µmol/kg
Relaxin receptor 1 [4] = target: T1, Relaxin receptor 1 (Rattus norvegicus, UniProt Q6R6I6); experiment: Agonist activity at rat RXFP1 expressed in CHO-K1 cells assessed as increase in cAMP level measured after 2 hrs by HTRF cAMP assay; type: functional, cell-based
T1 sequence (Q6R6I6 whole entry): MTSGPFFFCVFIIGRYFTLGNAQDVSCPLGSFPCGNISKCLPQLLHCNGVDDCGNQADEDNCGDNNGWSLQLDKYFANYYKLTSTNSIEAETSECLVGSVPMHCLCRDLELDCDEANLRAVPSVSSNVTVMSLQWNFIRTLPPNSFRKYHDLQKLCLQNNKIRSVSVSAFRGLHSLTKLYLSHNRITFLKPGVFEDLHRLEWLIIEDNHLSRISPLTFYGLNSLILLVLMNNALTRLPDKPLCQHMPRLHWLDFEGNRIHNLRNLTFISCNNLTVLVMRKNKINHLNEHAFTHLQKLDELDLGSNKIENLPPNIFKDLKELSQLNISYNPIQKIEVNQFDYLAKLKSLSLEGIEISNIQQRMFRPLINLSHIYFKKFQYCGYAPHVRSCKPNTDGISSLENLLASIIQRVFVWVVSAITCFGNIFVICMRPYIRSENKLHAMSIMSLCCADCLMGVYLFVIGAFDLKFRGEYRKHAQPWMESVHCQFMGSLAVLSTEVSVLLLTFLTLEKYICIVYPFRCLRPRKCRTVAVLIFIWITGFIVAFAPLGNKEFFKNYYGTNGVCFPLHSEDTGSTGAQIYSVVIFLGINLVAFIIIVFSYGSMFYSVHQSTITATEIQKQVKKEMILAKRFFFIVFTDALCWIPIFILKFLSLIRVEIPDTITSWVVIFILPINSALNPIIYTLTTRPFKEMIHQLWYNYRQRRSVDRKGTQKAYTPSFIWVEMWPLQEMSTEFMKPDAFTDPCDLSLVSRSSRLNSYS

[5] = Volume of distribution at steady state in Han Wistar rat at 0.93 micromol/kg, iv by LC-MS/MS analysis; type: ADME, organism-based; conditions: in vivo, dose 0.93 µmol/kg, read-out: Vdss
Relaxin receptor 1 [6] = target: T2, Relaxin receptor 1 (Mus musculus, UniProt Q6R6I7)
T2 sequence (Q6R6I7 whole entry): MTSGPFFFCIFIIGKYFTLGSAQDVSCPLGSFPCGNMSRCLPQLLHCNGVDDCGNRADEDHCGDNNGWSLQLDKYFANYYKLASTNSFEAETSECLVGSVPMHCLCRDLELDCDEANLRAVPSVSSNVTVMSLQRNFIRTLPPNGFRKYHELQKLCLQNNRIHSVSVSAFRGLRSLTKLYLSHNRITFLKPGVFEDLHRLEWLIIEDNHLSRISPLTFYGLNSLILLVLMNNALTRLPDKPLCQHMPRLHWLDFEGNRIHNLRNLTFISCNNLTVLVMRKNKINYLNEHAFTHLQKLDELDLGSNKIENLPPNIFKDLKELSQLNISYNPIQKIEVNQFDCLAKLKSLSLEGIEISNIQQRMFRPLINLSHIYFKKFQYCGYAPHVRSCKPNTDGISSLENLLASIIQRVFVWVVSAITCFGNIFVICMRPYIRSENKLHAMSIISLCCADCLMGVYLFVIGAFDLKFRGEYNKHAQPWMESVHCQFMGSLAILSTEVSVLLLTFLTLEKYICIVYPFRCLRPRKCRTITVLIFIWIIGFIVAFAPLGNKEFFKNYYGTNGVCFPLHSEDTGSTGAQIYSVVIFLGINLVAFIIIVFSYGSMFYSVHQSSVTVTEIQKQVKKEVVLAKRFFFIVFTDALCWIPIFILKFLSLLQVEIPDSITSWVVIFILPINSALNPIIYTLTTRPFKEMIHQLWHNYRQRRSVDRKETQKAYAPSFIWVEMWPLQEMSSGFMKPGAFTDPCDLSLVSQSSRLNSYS
Description: Agonist activity at mouse RXFP1 expressed in CHO-K1 cells assessed as increase in cAMP level measured after 2 hrs by HTRF cAMP assay

[7] = Half life in Han Wistar rat at 0.93 micromol/kg, iv by LC-MS/MS analysis; type: ADME, organism-based; conditions: in vivo, dose 0.93 µmol/kg
[8] = Metabolic stability in human hepatocytes assessed as unbound intrinsic clearance measured per 10^6 viable cells/ml at 1 uM measured upto 120 mins by LC-MS/MS analysis; type: ADME, cell-based, Hepatocyte; conditions: 2 h
[9] = Octanol/water partition coefficient, logD of the compound at pH 7.4 by shake flask method; type: physicochemical
[10] = Oral bioavailability in Han Wistar rat at 9.3 micromol/kg by LC-MS/MS analysis; type: ADME, organism-based; conditions: in vivo, 9.3 µmol/kg
[11] = Metabolic stability in rat hepatocytes assessed as unbound intrinsic clearance measured per 10^6 viable cells/ml at 1 uM measured upto 120 mins by LC-MS/MS analysis; type: ADME, cell-based, Hepatocyte; conditions: 2 h
[12] = Protein binding in rat plasma assessed as fraction unbound at 5 uM measured after 18 hrs by LC-MS/MS analysis; type: ADME, cell-free; conditions: read-out: PPB
[13] = Metabolic stability in human liver microsomes assessed as unbound intrinsic clearance at 1 uM measured upto 30 mins by LC-MS/MS analysis; type: ADME, Microsome; conditions: 0.5 h
[14] = Efflux ratio of apparent permeability from basolateral side to apical side over apical side to basolateral side in human Caco-2 cells at pH 7.4 by LC-MS/MS analysis; conditions: Caco-2, pH 7.4
[15] = Apparent permeability across apical to basolateral side in human Caco-2 cells at pH 7.4 by LC-MS/MS analysis; type: ADME, cell-based; conditions: Caco-2, pH 7.4
Relaxin receptor 1 [16] = target: T3, Relaxin receptor 1 (Homo sapiens, UniProt Q9HBX9)
T3 sequence (Q9HBX9 whole entry): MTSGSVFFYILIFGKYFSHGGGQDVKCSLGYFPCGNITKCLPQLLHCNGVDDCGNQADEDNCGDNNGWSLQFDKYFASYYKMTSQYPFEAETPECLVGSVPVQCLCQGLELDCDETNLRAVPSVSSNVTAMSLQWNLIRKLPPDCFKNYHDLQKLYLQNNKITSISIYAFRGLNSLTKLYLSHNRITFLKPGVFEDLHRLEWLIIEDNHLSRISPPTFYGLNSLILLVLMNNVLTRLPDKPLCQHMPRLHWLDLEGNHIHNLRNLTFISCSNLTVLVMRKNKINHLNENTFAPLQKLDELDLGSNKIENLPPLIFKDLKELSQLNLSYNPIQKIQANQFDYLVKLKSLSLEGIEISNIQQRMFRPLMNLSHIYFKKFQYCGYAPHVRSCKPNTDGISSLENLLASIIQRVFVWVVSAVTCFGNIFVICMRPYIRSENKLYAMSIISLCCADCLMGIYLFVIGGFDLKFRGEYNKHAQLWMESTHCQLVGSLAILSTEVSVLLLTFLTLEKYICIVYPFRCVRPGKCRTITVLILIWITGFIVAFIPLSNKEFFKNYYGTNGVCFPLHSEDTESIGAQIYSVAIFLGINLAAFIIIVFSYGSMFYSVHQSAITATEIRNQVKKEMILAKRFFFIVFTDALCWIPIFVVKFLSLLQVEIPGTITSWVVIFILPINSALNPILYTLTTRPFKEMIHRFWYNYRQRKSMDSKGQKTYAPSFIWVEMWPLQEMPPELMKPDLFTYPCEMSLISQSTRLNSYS
Description: Agonist activity at human RXFP1 expressed in CHO cells assessed as increase in cAMP level measured after 2 hrs by HTRF cAMP assay

Relaxin receptor 1 [17] = target: T3, Relaxin receptor 1; experiment: Agonist activity at human RXFP1 expressed in HEK293 cells coexpressing GRK2 assessed as beta-arrestin internalization by BRET assay relative to control
[18] = Protein binding in human plasma assessed as fraction unbound at 5 uM measured after 18 hrs by LC-MS/MS analysis; type: ADME, cell-free; conditions: read-out: PPB
Relaxin receptor 1 [19] = target: T3, Relaxin receptor 1; experiment: Agonist activity at human RXFP1 expressed in HEK293 cells assessed as ERK phosphorylation measured after 24 hrs by HTRF assay
Relaxin receptor 1 [20] = target: T3, Relaxin receptor 1; experiment: Agonist activity at human RXFP1 expressed in CHO-K1 cells assessed as dynamic mass redistribution (DMR) measured after 60 mins by G-protein coupling DMR assay
Relaxin receptor 1 [21] = target: T3, Relaxin receptor 1; experiment: Agonist activity at human RXFP1 expressed in CHO-K1 cells assessed as dynamic mass redistribution (DMR) measured after 60 mins pretreated with PTX by G-protein coupling DMR assay
Relaxin receptor 1 [22] = target: T3, Relaxin receptor 1; experiment: Agonist activity at human RXFP1 expressed in HEK293 cells co-expressing G-alphaz assessed as cAMP production measured after 15 mins by BRET sensor assay
Relaxin receptor 1 [23] = target: T3, Relaxin receptor 1; experiment: Agonist activity at human RXFP1 expressed in CHO-K1 cells assessed as dynamic mass redistribution (DMR) measured after 60 mins pretreated with UBO-QIC by G-protein coupling DMR assay
Relaxin receptor 1 [24] = target: T3, Relaxin receptor 1; experiment: Agonist activity at human RXFP1 expressed in HEK293 cells co-expressing G-alphas assessed as cAMP production measured after 15 mins by BRET sensor assay
Relaxin receptor 1 [25] = target: T3, Relaxin receptor 1; experiment: Agonist activity at human RXFP1 expressed in HEK293 cells assessed as cAMP production measured after 15 mins by BRET sensor assay

microsomal CLint at 1 µM [2]: < 3 µL/min/mg
clearance [3]: 41 mL/min/kg
EC50 (Relaxin receptor 1 [4]): 15800 nM
Vd [5]: 0.55 L/kg
EC50 (Relaxin receptor 1 [6]): 1260 nM
half-life [7]: 2 h
logD [9]: 2.3
bioavailability [10]: 61%
fraction unbound at 18 h, 5 µM [12]: 0.078
CL free [13]: < 4.3 µL/min/mg
SMILES: COc1cc(C#N)c(O[C@H]2CC[C@@](C)(C(=O)O)CC2)cc1C(=O)N[C@@H]1[C@H]2CC[C@H](C2)[C@@H]1C(=O)NCC(C)(C)C
hepatocyte CLint at 1 µM [1]: < 1.3 µL/min/1e6 cells
CL free [8]: < 2 µL/min
CL free [11]: 15 µL/min

efflux ratio [14]: 6.8
microsomal CLint at 1 µM [2]: 14 µL/min/mg
Papp A→B [15]: 81 ×10⁻⁶ cm/s
EC50 (Relaxin receptor 1 [16]): 39.8 nM
logD [9]: 3
CL free [13]: 20 µL/min/mg
SMILES: COc1cc(F)c(O[C@H]2CC[C@@](C)(C(=O)O)CC2)cc1C(=O)N[C@@H]1[C@H]2CC[C@H](C2)[C@@H]1C(=O)NCC(C)(C)C
hepatocyte CLint at 1 µM [1]: 2.7 µL/min/1e6 cells
CL free [8]: 4.3 µL/min

EC50 (Relaxin receptor 1 [17]): 1.51 nM
fraction unbound at 18 h, 5 µM [18]: < 0.0023
microsomal CLint at 1 µM [2]: 61 µL/min/mg
EC50 (Relaxin receptor 1 [19]): 3.16 nM
EC50 (Relaxin receptor 1 [20]): 0.0251 nM
EC50 (Relaxin receptor 1 [21]): 0.02 nM
EC50 (Relaxin receptor 1 [22]): 2.51 nM
logD [9]: 4.9
EC50 (Relaxin receptor 1 [23]): 0.0251 nM
EC50 (Relaxin receptor 1 [24]): 0.316 nM
EC50 (Relaxin receptor 1 [25]): 0.0316 nM
CL free [13]: 3.39 10^3uL/min/mg
SMILES: COc1cc(F)c(O[C@H]2CC[C@@](C)(C(=O)O)CC2)cc1C(=O)N[C@@H]1[C@H]2CC[C@H](C2)[C@@H]1C(=O)Nc1ccc(F)c(S(F)(F)(F)(F)F)c1
hepatocyte CLint at 1 µM [1]: 21 µL/min/1e6 cells
CL free [8]: 2.1 10^3uL/min
